Assay results: ChEMBL document CHEMBL1157539, “Thousands of chemical starting points for antimalarial lead identification” (Nature, 2010)

Test system: Plasmodium falciparum
Assay: GSK_TCMDC: Inhibition of Plasmodium falciparum 3D7 in whole erythrocytes, using parasite LDH activity as an index of growth.
Type: functional, organism-based
Conditions: Plasmodium falciparum, 3D7

SMILES: Cc1ccc(Nc2nc(N/N=C/c3cccc([N+](=O)[O-])c3)nc(Nc3ccccc3)n2)c(C)c1
- XC50: 626 nM

SMILES: CCN(CC)CCN(Cc1ccc(-c2ccc(C(F)(F)F)cc2)cc1)C(=O)Cn1c(CCc2cccc(F)c2F)nc(=O)c2cc(F)c(F)cc21
- XC50: 833 nM

SMILES: CCN(CC)CCN(Cc1ccc(-c2ccc(C(F)(F)F)cc2)cc1)C(=O)Cn1c(CCc2ccc(F)c(F)c2)cc(=O)c2ccccc21
- XC50: 890 nM

SMILES: Nc1nc(N)c2cc(S(=O)(=O)c3ccc4ccccc4c3)ccc2n1
- XC50: 36.8 nM

SMILES: COc1cc(Cc2cnc(N)nc2N)cc(CC(C)O)c1O (configuration not stated)
- XC50: 843 nM

SMILES: COc1ccc(-c2ccc(NC(=O)c3ccc(Cl)cc3)cc2)cc1CN(C)CCN(C)C
- XC50: 675 nM

SMILES: Cc1cccc2nc(-c3cccc(-c4ccc(CN5CCCC5CN)cc4)c3)[nH]c12 (configuration not stated)
- XC50: 760 nM

SMILES: O=C(Nc1ccc(OC2CCN(Cc3ccccc3)C2)c(Cl)c1)c1ccsc1 (configuration not stated)
- XC50: 735 nM

SMILES: COCCCNC(=O)C1CCN(C(c2ccc(Cl)cc2)c2ccc(Cl)cc2)CC1
- XC50: 920 nM

SMILES: CN(C)CCN(C)Cc1ccc(-c2ccc3c(Nc4ccc(Cl)cc4F)ccnc3c2)o1
- XC50: 360 nM

SMILES: O=C1CCCN1CCCNCc1ccc(-c2cccc(-c3nc4ccccc4[nH]3)c2)cc1
- XC50: 1020 nM

SMILES: O=C(NCCN1CCCCC1)c1cccc(Nc2nccc(Nc3ccc(Oc4ccccc4)cc3)n2)c1
- XC50: 273 nM

SMILES: FC(F)(F)c1ccc2[nH]c(-c3cccc(-c4cccc(CNCCN5CCNCC5)c4)c3)nc2c1
- XC50: 937 nM

SMILES: CCOc1cc(C(=O)NC2CCN(Cc3ccccc3)C2)ccc1-c1nc2cc(Cl)ccc2[nH]1 (configuration not stated)
- XC50: 1010 nM

SMILES: Oc1cc2c(cc1CN1CCN(Cc3ccc(Cl)s3)CC1)CCC2
- XC50: 616 nM

SMILES: COc1ccc2ncc(F)c(CCN3CCC(NCc4cc(F)c5c(c4)OCCO5)CC3)c2n1
- XC50: 346 nM

SMILES: Nc1nc(N)c2c(ccc3c2ccn3Cc2ccc(Br)cc2)n1
- XC50: 3.2 nM

SMILES: COc1ccc(CNC2Cc3ccccc3C2)cc1-c1ccc(S(=O)(=O)NCCN2CCCC2)s1
- XC50: 195 nM

SMILES: Cc1cc(N[C@@H](Cc2ccccc2)C(=O)NCCOc2ccccc2)nc(NCc2ccccc2C)n1
- XC50: 711 nM

SMILES: CC[C@H]1CN2CC[C@@H]1C[C@H]2[C@H](O)c1cc(N2CCC(O)CC2)nc2ccc(OC)cc12
- XC50: 166 nM

SMILES: CN(C)CC1CCCN1Cc1ccccc1-c1cnn(C)c(=O)c1Oc1cccc(C#N)c1 (configuration not stated)
- XC50: 1340 nM

SMILES: COc1ccc(Br)cc1/C=C/C(=O)Nc1ccc(C2CCN(C)CC2)cc1
- XC50: 502 nM

SMILES: CC(C)C[C@@H](/C=N/N1CCOC1=O)NC(=O)[C@H](CC(C)C)NC(=O)c1ccc(F)cc1
- XC50: 1170 nM

SMILES: COc1ccccc1C1CCN(CCN2CCC(NC(=O)c3ccc(-c4ccc(C#N)cc4)cc3)CC2)CC1
- XC50: 792 nM

SMILES: Cc1cccc2nc(-c3cccc(-c4cccc(NC(=O)Nc5cccc(C#N)c5)c4)c3)[nH]c12
- XC50: 104 nM

SMILES: Cc1cc(NC(=O)NCCN2CCC(NC(=O)c3ccc(Cl)cc3)CC2)c2ccccc2n1
- XC50: 381 nM

SMILES: CC(C)(C)c1ccc(CN(C[C@@H](O)CNS(=O)(=O)c2cc(Cl)cc(Cl)c2)C(C)(C)C)cc1
- XC50: 935 nM

SMILES: COc1ccc(C(c2ccc(N(C)C)cc2)c2ccc(N(C)C)cc2)cc1
- XC50: 64.8 nM

SMILES: COc1ccc(NC(=O)NC2CCN(CCCCCNC(=O)/C=C/c3ccc(Cl)c(Cl)c3)C2)c(OC)c1 (configuration not stated)
- XC50: 823 nM

SMILES: N#Cc1c(N)n(CCc2ccc(F)cc2)c2nc3ccccc3nc12
- XC50: 973 nM

SMILES: O=C(Nc1ccc(Cl)cc1)c1ccc(CN2CCCN(CC3CCCCC3)CC2)cc1
- XC50: 220 nM

SMILES: CCCC(C)C(=O)N1CCOC(COCc2cccc(C(F)(F)F)c2)(c2ccc(Cl)cc2)C1 (configuration not stated)
- XC50: 403 nM

SMILES: O=C(NC1CCN(c2ccc(F)cc2[N+](=O)[O-])CC1)c1cccs1
- XC50: 675 nM

SMILES: CC(=O)Oc1c(C(=O)C2CCC(C(C)(C)C)CC2)c(OC(C)=O)c2ccccc2c1OC(C)=O (configuration not stated)
- XC50: 268 nM

SMILES: Cc1cnc(CNCc2ccc(S(=O)(=O)Nc3ccc(Oc4cccc(Cl)c4)cc3)cc2)cn1
- XC50: 766 nM

SMILES: C[C@H](CNc1ccnc(Nc2ccc3[nH]c(=O)[nH]c3c2)n1)c1ccccc1
- XC50: 1310 nM

SMILES: Cc1cc(N[C@@H](CC(C)C)C(=O)Nc2ccccc2)nc(Nc2ccccc2)n1
- XC50: 728 nM

SMILES: CO/C(=C\C=C\c1cc2cc(Cl)c(Cl)cc2[nH]1)C(=O)NCCCN1CC(C)N(C)CC1C (configuration not stated)
- XC50: 1130 nM

SMILES: CC1=C(C(=O)Nc2cc3cn[nH]c3cc2F)C(c2ccc(Cl)c(NS(C)(=O)=O)c2)CC(=O)N1 (configuration not stated)
- XC50: 482 nM

SMILES: COCCNC(=O)c1ccc(OC2CCN(Cc3ccc(F)c(F)c3)CC2)c(Cl)c1
- XC50: 1490 nM

SMILES: COc1cc(NC(=O)N2CCc3ccc(OCCN4CCCCC4)cc32)cc(C(F)(F)F)c1
- XC50: 266 nM

SMILES: O=C(NCCCCN1CCC(c2c[nH]c3ccccc23)CC1)c1sc(-c2ccc(C(F)(F)F)cc2)nc1CO
- XC50: 1200 nM

SMILES: N#CCc1ccc(Nc2nccc(Nc3ccc(Oc4ccccc4)cc3)n2)cc1
- XC50: 805 nM

SMILES: COc1ccc2nccc([C@@H](O)CN3CCC(NCc4cc5c(Cl)cccc5[nH]4)CC3)c2c1
- XC50: 155 nM

SMILES: Nc1nc(N)c2c(n1)CCc1cc(Br)ccc1-2
- XC50: 1130 nM

SMILES: O=C(/C=C/c1ccc(Cl)c(Cl)c1)NCCCCCN1CCC(NC(=S)Nc2ccc(F)cc2F)CC1
- XC50: 805 nM

SMILES: Clc1ccc(Nc2nc3nonc3nc2Nc2ccc(Cl)c(Cl)c2)cc1
- XC50: 645 nM

SMILES: Cc1cccc2nc(-c3ccc(-c4ccc(CN5CCN(c6ccncc6)CC5)cc4)s3)[nH]c12
- XC50: 114 nM

SMILES: CC(=O)C1(c2ccccc2)CCN(CCC2(c3ccc(Cl)c(Cl)c3)CN(C(=O)C3CCCCC3)CCO2)CC1 (configuration not stated)
- XC50: 314 nM

SMILES: Cc1cccc2c1NC(=O)/C2=N/NC(=S)N(C)C
- XC50: 755 nM

SMILES: CCC(C)NC(=O)Nc1ccc(-c2cccc(-c3nc4cccc(C)c4[nH]3)c2)cc1 (configuration not stated)
- XC50: 189 nM

SMILES: O=C(/C=C/c1ccc(Cl)c(Cl)c1)NCC(CCCN1CCC(c2c[nH]c3ccccc23)CC1)c1ccccc1 (configuration not stated)
- XC50: 813 nM

SMILES: O=C(C=Cc1ccc(Cl)c(Cl)c1)NCCCCCN1CCC(CCCNS(=O)(=O)c2ccc(F)cc2)CC1
- XC50: 1020 nM

SMILES: CN1CCN(CCCNc2ncc3c(-c4ccc(NC(=O)Nc5cc(C(F)(F)F)ccc5F)c(F)c4)nn(C)c3n2)CC1
- XC50: 859 nM

SMILES: CC(C)Sc1nc2c(c(=O)n1CCc1ccccc1)C1(CCCCC1)Cc1ccccc1-2
- XC50: 1870 nM

SMILES: CNCCNCc1cccc(-c2cccc(-c3nc4cc(F)ccc4[nH]3)c2)c1
- XC50: 670 nM

SMILES: Fc1ccc2[nH]c(-c3ccc(-c4ccc(CNCCc5cccnc5)cc4)s3)nc2c1
- XC50: 236 nM

SMILES: Oc1ccc(CCNCCCCNCCc2ccc(Cl)cc2)cc1O
- XC50: 843 nM

SMILES: COc1c(C2CCN(CCCCNC(=O)c3cc(-c4ccc(Cl)cc4)oc3C)CC2)ccc2c1CCCC2
- XC50: 882 nM

SMILES: COc1ccc(N2C(N)=NC(N)=NC2(C)C)cc1
- XC50: 113 nM

SMILES: O=C(Nc1cccc(-c2cccc(-c3ccc(F)cc3)n2)c1)c1ccc([N+](=O)[O-])o1
- XC50: 361 nM

SMILES: O=C(Nc1cccc(-c2ccc(-c3nc4cc(F)ccc4[nH]3)cc2)c1)c1cccnc1
- XC50: 612 nM

SMILES: CC(C)C[C@@H](NC(=O)OC(C)(C)C)C(=O)Nc1ccc(Cc2ccc(NC(=O)[C@@H](CC(C)C)NC(=O)OC(C)(C)C)cc2)cc1
- XC50: 207 nM

SMILES: O=C(NCc1ccccc1)c1ncn(CCCN2CCC(N3CCCC3)CC2)c1-c1ccc(Cl)c(Cl)c1
- XC50: 1120 nM

SMILES: Fc1cccc(C=NN=c2cc[nH]c3ccccc23)c1
- XC50: 839 nM

SMILES: CCCN(CCC)CCCNc1ccc(C(=O)Nc2ccc(C)c(F)c2)cc1[N+](=O)[O-]
- XC50: 539 nM

SMILES: O=C(NC1CCN(Cc2ccc(F)cc2)CC1)c1ccc(-c2cccc(C(F)(F)F)c2)s1
- XC50: 1360 nM

SMILES: O=C(N[C@@H](CC1CCCCC1)C(=O)NCCN1CCCC1)c1ccc(O)c(-c2cccc(C(F)(F)F)c2)c1
- XC50: 760 nM

SMILES: O=C(NCC1CCN(Cc2ccc3c(c2)OCCO3)C1)c1cc(-c2ccccc2F)cs1 (configuration not stated)
- XC50: 1020 nM

SMILES: O=C(/C=C/c1ccc(F)c(Br)c1)NCCCCCN1CCC(c2c[nH]c3ccccc23)CC1
- XC50: 864 nM

SMILES: O=c1cc(NCCCNCc2ccc(C(F)(F)F)s2)[nH]c2ccccc12
- XC50: 200 nM

SMILES: CCOc1cc(C)ccc1C1CCN(CCN2CCC(CNC(=O)c3ccc(-c4ccc(C(F)(F)F)cc4)cc3)CC2)CC1
- XC50: 701 nM

SMILES: CN1CCCN(c2ccnc3cc4c(cc23)N(C(=O)c2ccc(C(F)(F)F)cc2)CC4)CC1
- XC50: 794 nM

SMILES: CCN(CCCN1CCCCC1)c1cc(C)nc(Nc2ccc(C)cc2C)n1
- XC50: 351 nM

SMILES: Nc1ncc(-c2ccc3[nH]ccc3c2)c2ccc(-c3ccncc3)cc12
- XC50: 542 nM

SMILES: COc1ccc(CNC2CCCC2)cc1-c1ccc(S(=O)(=O)NCCN2CCCC2)s1
- XC50: 798 nM

SMILES: O=C1SC(=Cc2ccc(O)c(O)c2)C(=O)N1c1ccccc1
- XC50: 1200 nM

SMILES: CCOc1ccc(CNCCCCCCNCc2ccc(OCC)c3ccccc23)c2ccccc12
- XC50: 447 nM

SMILES: CCc1cccc(-c2cc(N)n(C)c3nc(N)nc(=O)c2-3)c1
- XC50: 1120 nM

SMILES: CCN(CC)C(=O)C1CCCN(C(=O)Nc2cc(C(F)(F)F)cc(C(F)(F)F)c2)C1 (configuration not stated)
- XC50: 996 nM

SMILES: COc1cccc(-c2ccc3c(-c4cccc(S(C)(=O)=O)c4)cnc(N)c3c2)c1
- XC50: 874 nM

SMILES: CC1(C)CCCC(=Cc2ccc(Br)cc2)C1(O)Cn1ccnc1 (configuration not stated)
- XC50: 791 nM

SMILES: CC(=O)Nc1cccc(Nc2nccc(Nc3ccc(Oc4ccccc4)cc3)n2)c1
- XC50: 745 nM

SMILES: O=C(Nc1ccc(-c2nc3ccccc3[nH]2)cc1)c1cnc(Cl)c(Cl)c1
- XC50: 728 nM

SMILES: O=C(Nc1cccc(F)c1)N1CCC(NS(=O)(=O)c2ccc(Br)cc2)CC1
- XC50: 979 nM

SMILES: FC(F)(F)c1ccc2[nH]c(-c3ccc(-c4ccc(CNCCN5CCNCC5)cc4)cc3)nc2c1
- XC50: 1120 nM

SMILES: COc1cc2c(cc1C(F)(F)F)N(C(=O)Nc1cc(OC(F)(F)F)cc(-c3cccnc3)c1)CC2
- XC50: 41.5 nM

SMILES: CCCC(=O)c1cnc2c(I)cccc2c1Nc1ccccc1C
- XC50: 1160 nM

SMILES: CSC1=NC(=Nc2ccccc2C)C2(CCC(C(C)(C)C)CC2)N1c1ccccc1Cl (configuration not stated)
- XC50: 800 nM

SMILES: O=C(NC1CC1)c1cnc(N2CCC(c3ccccc3)CC2)c(Cl)c1
- XC50: 851 nM

SMILES: COc1ccc(Nc2cc(C)c3cc(NC(=O)c4ccncc4)ccc3n2)cc1
- XC50: 908 nM

SMILES: CCOc1cc(C(=O)NC2CC(C)(C)NC(C)(C)C2)ccc1-c1nc2cc(Cl)ccc2[nH]1
- XC50: 992 nM

SMILES: CN(CCC(O)c1ccc(Cl)c(Cl)c1)CC1CC1C(=O)c1ccccc1 (configuration not stated)
- XC50: 794 nM

SMILES: COc1ccc(-c2cc(NCc3ccc(-n4ccnc4)cc3)nc(Nc3ccccc3)n2)cc1
- XC50: 966 nM

SMILES: CCOc1ccccc1NC(=O)C(Sc1nc(C)cc(C)c1C#N)c1ccccc1 (configuration not stated)
- XC50: 373 nM

SMILES: CCC(C)c1ccc(NC(=O)Nc2ccnc3ccccc23)cc1 (configuration not stated)
- XC50: 625 nM

SMILES: CCCCCC(C)N/C(=N/c1ccccc1Br)Nc1ccc([N+](=O)[O-])cc1O (configuration not stated)
- XC50: 615 nM
